Assay results: ChEMBL document CHEMBL2413072, “Synthesis and in vitro anticancer studies of novel C-2 arylidene congeners of lantadenes” (2013)

Columns and labels:
Type in all cases: functional
KM12 = experiment: Growth inhibition of human KM12 cells assessed as cell growth at 10 uM by sulforhodamine B assay; conditions: read-out: Activity
CAKI-1 [1] = experiment: Growth inhibition of human CAKI-1 cells assessed as growth inhibition at 10 uM by sulforhodamine B assay; conditions: read-out: GI
Malme-3M = experiment: Growth inhibition of human MALME-3M cells assessed as cell growth at 10 uM by sulforhodamine B assay; conditions: read-out: Activity
CAKI-1 [2] = experiment: Growth inhibition of human CAKI-1 cells assessed as cell growth at 10 uM by sulforhodamine B assay; conditions: read-out: Activity
OVCAR-8 [3] = experiment: Growth inhibition of human OVCAR8 cells assessed as growth inhibition at 10 uM by sulforhodamine B assay; conditions: read-out: GI
HT-29 [4] = experiment: Growth inhibition of human HT-29 cells assessed as cell growth at 10 uM by sulforhodamine B assay; conditions: read-out: Activity
OVCAR-4 = experiment: Growth inhibition of human OVCAR4 cells assessed as growth inhibition at 10 uM by sulforhodamine B assay; conditions: read-out: GI
A498 = experiment: Growth inhibition of human A498 cells assessed as cell growth at 10 uM by sulforhodamine B assay; conditions: read-out: Activity
SF-268 = experiment: Growth inhibition of human SF268 cells assessed as cell growth at 10 uM by sulforhodamine B assay; conditions: read-out: Activity
UACC-257 [5] = experiment: Growth inhibition of human UACC257 cells assessed as cell growth at 10 uM by sulforhodamine B assay; conditions: read-out: Activity
ACHN = experiment: Growth inhibition of human ACHN cells assessed as cell growth at 10 uM by sulforhodamine B assay; conditions: read-out: Activity
OVCAR-5 = experiment: Growth inhibition of human OVCAR5 cells assessed as growth inhibition at 10 uM by sulforhodamine B assay; conditions: read-out: GI
SK-MEL-5 = experiment: Growth inhibition of human SK-MEL-5 cells assessed as growth inhibition at 10 uM by sulforhodamine B assay; conditions: read-out: GI
SK-OV-3 [6] = experiment: Growth inhibition of human SKOV3 cells assessed as growth inhibition at 10 uM by sulforhodamine B assay; conditions: read-out: GI
HCT-15 = experiment: Growth inhibition of human HCT15 cells assessed as cell growth at 10 uM by sulforhodamine B assay; conditions: read-out: Activity
DU-145 = experiment: Growth inhibition of human DU145 cells assessed as growth inhibition at 10 uM by sulforhodamine B assay; conditions: read-out: GI
LOX IMVI [7] = experiment: Growth inhibition of human LOXIMVI cells assessed as cell growth at 10 uM by sulforhodamine B assay; conditions: read-out: Activity
SF-539 [8] = experiment: Growth inhibition of human SF539 cells assessed as growth inhibition at 10 uM by sulforhodamine B assay; conditions: read-out: GI
[9] = Growth inhibition of human Hs 578T cells assessed as cell growth at 10 uM by sulforhodamine B assay; conditions: read-out: Activity
UACC-257 [10] = experiment: Growth inhibition of human UACC257 cells assessed as growth inhibition at 10 uM by sulforhodamine B assay; conditions: read-out: GI
CCRF-CEM = experiment: Growth inhibition of human CCRF-CEM cells assessed as growth inhibition at 10 uM by sulforhodamine B assay; conditions: read-out: GI
MOLT-4 = experiment: Growth inhibition of human MOLT4 cells assessed as growth inhibition at 10 uM by sulforhodamine B assay; conditions: read-out: GI
M14 = experiment: Growth inhibition of human M14 cells assessed as cell growth at 10 uM by sulforhodamine B assay; conditions: read-out: Activity
MDA-MB-468 [11] = experiment: Growth inhibition of human MDA-MB-468 cells assessed as growth inhibition at 10 uM by sulforhodamine B assay; conditions: read-out: GI
MCF7 = experiment: Growth inhibition of human MCF7 cells assessed as growth inhibition at 10 uM by sulforhodamine B assay; conditions: read-out: GI
[12] = Growth inhibition of human EKVX cells assessed as cell growth at 10 uM by sulforhodamine B assay; conditions: read-out: Activity
OVCAR-3 [13] = experiment: Growth inhibition of human OVCAR3 cells assessed as growth inhibition at 10 uM by sulforhodamine B assay; conditions: read-out: GI
MDA-MB-231 = experiment: Growth inhibition of human MDA-MB-231 cells assessed as growth inhibition at 10 uM by sulforhodamine B assay; conditions: read-out: GI
SK-OV-3 [14] = experiment: Growth inhibition of human SKOV3 cells assessed as cell growth at 10 uM by sulforhodamine B assay; conditions: read-out: Activity
SK-MEL-2 = experiment: Growth inhibition of human SK-MEL-2 cells assessed as growth inhibition at 10 uM by sulforhodamine B assay; conditions: read-out: GI
MDA-MB-435 = experiment: Growth inhibition of human MDA-MB-435 cells assessed as growth inhibition at 10 uM by sulforhodamine B assay; conditions: read-out: GI
OVCAR-8 [15] = experiment: Growth inhibition of human OVCAR8 cells assessed as cell growth at 10 uM by sulforhodamine B assay; conditions: read-out: Activity
SNB-75 = experiment: Growth inhibition of human SNB75 cells assessed as growth inhibition at 10 uM by sulforhodamine B assay; conditions: read-out: GI
HT-29 [16] = experiment: Growth inhibition of human HT-29 cells assessed as growth inhibition at 10 uM by sulforhodamine B assay; conditions: read-out: GI
LOX IMVI [17] = experiment: Growth inhibition of human LOXIMVI cells assessed as growth inhibition at 10 uM by sulforhodamine B assay; conditions: read-out: GI
[18] = Growth inhibition of human NCI-ADR-RES cells assessed as cell growth at 10 uM by sulforhodamine B assay; conditions: read-out: Activity
PC-3 = experiment: Growth inhibition of human PC3 cells assessed as growth inhibition at 10 uM by sulforhodamine B assay; conditions: read-out: GI
MDA-MB-468 [19] = experiment: Growth inhibition of human MDA-MB-468 cells assessed as cell growth at 10 uM by sulforhodamine B assay; conditions: read-out: Activity
UO-31 = experiment: Growth inhibition of human UO31 cells assessed as cell growth at 10 uM by sulforhodamine B assay; conditions: read-out: Activity
T47D = experiment: Growth inhibition of human T47D cells assessed as growth inhibition at 10 uM by sulforhodamine B assay; conditions: read-out: GI
[20] = Growth inhibition of human HCC2998 cells assessed as cell growth at 10 uM by sulforhodamine B assay; conditions: HCC 2998, read-out: Activity
OVCAR-3 [21] = experiment: Growth inhibition of human OVCAR3 cells assessed as cell growth at 10 uM by sulforhodamine B assay; conditions: read-out: Activity
SF-539 [22] = experiment: Growth inhibition of human SF539 cells assessed as cell growth at 10 uM by sulforhodamine B assay; conditions: read-out: Activity
[23] = Growth inhibition of human HCC2998 cells assessed as growth inhibition at 10 uM by sulforhodamine B assay; conditions: HCC 2998, read-out: GI
RPMI-8226 = experiment: Growth inhibition of human RPMI8226 cells assessed as growth inhibition at 10 uM by sulforhodamine B assay; conditions: read-out: GI
U-251 = experiment: Growth inhibition of human U251 cells assessed as cell growth at 10 uM by sulforhodamine B assay; conditions: read-out: Activity
NCI-H226 = experiment: Growth inhibition of human NCI-H226 cells assessed as growth inhibition at 10 uM by sulforhodamine B assay; conditions: read-out: GI
SF-295 = experiment: Growth inhibition of human SF295 cells assessed as growth inhibition at 10 uM by sulforhodamine B assay; conditions: read-out: GI
HOP-62 = experiment: Growth inhibition of human HOP62 cells assessed as growth inhibition at 10 uM by sulforhodamine B assay; conditions: read-out: GI

COc1cc(/C=C2\C[C@]3(C)[C@H]4CC=C5[C@@H]6CC(C)(C)C[C@@H](O)[C@]6(C(=O)O)CC[C@@]5(C)[C@]4(C)CC[C@H]3C(C)(C)C2=O)ccc1O
growth at 10 µM (KM12): 84%
inhibition of growth at 10 µM (CAKI-1 [1]): 21.2%
growth at 10 µM (Malme-3M): 81.1%
growth at 10 µM (CAKI-1 [2]): 78.8%
inhibition of growth at 10 µM (OVCAR-8 [3]): 20.2%
growth at 10 µM (HT-29 [4]): 85.5%
inhibition of growth at 10 µM (OVCAR-4): 16.2%
growth at 10 µM (A498): 115%
growth at 10 µM (SF-268): 109%
growth at 10 µM (UACC-257 [5]): 91.4%
growth at 10 µM (ACHN): 85.6%
inhibition of growth at 10 µM (OVCAR-5): < 10%
inhibition of growth at 10 µM (SK-MEL-5): 11.9%
inhibition of growth at 10 µM (SK-OV-3 [6]): < 10%
growth at 10 µM (HCT-15): 76.5%
inhibition of growth at 10 µM (DU-145): < 10%
growth at 10 µM (LOX IMVI [7]): 88.4%
inhibition of growth at 10 µM (SF-539 [8]): < 10%
growth at 10 µM [9]: 94%
inhibition of growth at 10 µM (UACC-257 [10]): < 10%
inhibition of growth at 10 µM (CCRF-CEM): 18%
inhibition of growth at 10 µM (MOLT-4): 36.7%
growth at 10 µM (M14): 103%
inhibition of growth at 10 µM (MDA-MB-468 [11]): < 10%
inhibition of growth at 10 µM (MCF7): 22.5%
growth at 10 µM [12]: 88.5%
inhibition of growth at 10 µM (OVCAR-3 [13]): < 10%
inhibition of growth at 10 µM (MDA-MB-231): < 10%
growth at 10 µM (SK-OV-3 [14]): 99.2%
inhibition of growth at 10 µM (SK-MEL-2): < 10%
inhibition of growth at 10 µM (MDA-MB-435): < 10%
growth at 10 µM (OVCAR-8 [15]): 79.8%
inhibition of growth at 10 µM (SNB-75): 17.9%
inhibition of growth at 10 µM (HT-29 [16]): 14.5%
inhibition of growth at 10 µM (LOX IMVI [17]): 11.6%
growth at 10 µM [18]: 92.7%
inhibition of growth at 10 µM (PC-3): 27.8%
growth at 10 µM (MDA-MB-468 [19]): 103%
growth at 10 µM (UO-31): 75.5%
inhibition of growth at 10 µM (T47D): 18.9%
growth at 10 µM [20]: 95.2%
growth at 10 µM (OVCAR-3 [21]): 106%
growth at 10 µM (SF-539 [22]): 96.1%
inhibition of growth at 10 µM [23]: < 10%
inhibition of growth at 10 µM (RPMI-8226): 40.5%
growth at 10 µM (U-251): 84.7%
inhibition of growth at 10 µM (NCI-H226): < 10%
inhibition of growth at 10 µM (SF-295): 23.5%
inhibition of growth at 10 µM (HOP-62): < 10%

CC(C)=CC(=O)O[C@@H]1CC(C)(C)C[C@H]2C3=CC[C@@H]4[C@@]5(C)CCC(=O)C(C)(C)[C@@H]5CC[C@@]4(C)[C@]3(C)CC[C@@]12C(=O)O
growth at 10 µM (KM12): 30.4%
inhibition of growth at 10 µM (CAKI-1 [1]): 53.2%
growth at 10 µM (Malme-3M): 85.4%
growth at 10 µM (CAKI-1 [2]): 46.8%
inhibition of growth at 10 µM (OVCAR-8 [3]): 44.9%
growth at 10 µM (HT-29 [4]): 57.3%
inhibition of growth at 10 µM (OVCAR-4): 28.7%
growth at 10 µM (A498): 101%
growth at 10 µM (SF-268): 73%
growth at 10 µM (UACC-257 [5]): 73.9%
growth at 10 µM (ACHN): 43.9%
inhibition of growth at 10 µM (OVCAR-5): < 10%
inhibition of growth at 10 µM (SK-MEL-5): 52.1%
inhibition of growth at 10 µM (SK-OV-3 [6]): < 10%
growth at 10 µM (HCT-15): 18.6%
inhibition of growth at 10 µM (DU-145): 25.6%
growth at 10 µM (LOX IMVI [7]): 51.2%
inhibition of growth at 10 µM (SF-539 [8]): 35%
growth at 10 µM [9]: 79.6%
inhibition of growth at 10 µM (UACC-257 [10]): 26.1%
inhibition of growth at 10 µM (CCRF-CEM): 74.7%
inhibition of growth at 10 µM (MOLT-4): 63.5%
growth at 10 µM (M14): 80.3%
inhibition of growth at 10 µM (MDA-MB-468 [11]): 35.8%
inhibition of growth at 10 µM (MCF7): 50.7%
growth at 10 µM [12]: 41.2%
inhibition of growth at 10 µM (OVCAR-3 [13]): 38.7%
inhibition of growth at 10 µM (MDA-MB-231): 28.5%
growth at 10 µM (SK-OV-3 [14]): 95.4%
inhibition of growth at 10 µM (SK-MEL-2): 21.8%
inhibition of growth at 10 µM (MDA-MB-435): 10.4%
growth at 10 µM (OVCAR-8 [15]): 55.1%
inhibition of growth at 10 µM (SNB-75): 30%
inhibition of growth at 10 µM (HT-29 [16]): 42.7%
inhibition of growth at 10 µM (LOX IMVI [17]): 48.8%
growth at 10 µM [18]: 60%
inhibition of growth at 10 µM (PC-3): 63.1%
growth at 10 µM (MDA-MB-468 [19]): 64.2%
growth at 10 µM (UO-31): 42%
inhibition of growth at 10 µM (T47D): 38.4%
growth at 10 µM [20]: 52.8%
growth at 10 µM (OVCAR-3 [21]): 61.3%
growth at 10 µM (SF-539 [22]): 65%
inhibition of growth at 10 µM [23]: 47.2%
inhibition of growth at 10 µM (RPMI-8226): 80.4%
growth at 10 µM (U-251): 38.2%
inhibition of growth at 10 µM (NCI-H226): 21.8%
inhibition of growth at 10 µM (HOP-62): 39.8%
